Measurements published in US6586206B1, “Methods for making recombinant proteins using apoptosis inhibitors” (priority 1999, dated 2003).
Residues, ends and D or L forms follow the SMILES beside them. *: point of attachment. Cbz = O=C(OCc1ccccc1)*; CH2F = FC*

Columns and labels:
[1] = test system: serum-free culture of CHO cells; settings: Goswami et al. 1999; cited from earlier work
[2] = test system: caspase-3; assay: caspase-3 activity in CHO culture treated with z-VAD-fmk; assay type: cell-based, Chinese hamster; settings: z-VAD-fmk added to the culture at 100 uM, from 48 hours, every 24 hours
Description: (§1) FIGS. 9-10 show assay results of CHO cells seeded in 60 mm dishes and exposed to caspase inhibitor, z-VAD-fmk (added to the cell culture at 100 micromolar concentration, 48 hours after seeding). The z-VAD-fmk inhibitor was added to the culture every 24 hours thereafter. Samples were taken every day and analyzed for caspase-3 activity (FIG. 9) and the % viable cells (FIG. 10).
(§2) CHO (dhfr+) cells grown in suspension were seeded at 1 million cells/ml in 60 mm tissue culture dishes. The cell culture media was a serum-free DMEM/Ham F-12 based medium containing recombinant human insulin and trace elements. Viability of the culture on day 0 was 96%. Two plates were analyzed each day for viability by Trypan Blue exclusion and by annexin/PI binding (Clontech) and for viable cell density. The experiment was carried out for 10 days. A chemical inhibitor of caspases, z-VAD-fmk (Enzyme Systems Products) was dissolved in DMSO to make a 100 mM (1000×) stock and 4 ul was added to a 60 mm dish containing 4 ml of culture. The inhibitor was added 48 hours after the start of the experiment (prior to the onset of apoptosis) and a new aliquot of the z-VAD-fmk inhibitor was added every 24 hours. Controls were cultures without any addition and cultures with the addition of DMSO only.

[3] = test system: CHO (dhfr+) cells; assay: viability/apoptosis of CHO culture in 60 mm dishes with z-VAD-fmk (Trypan Blue exclusion, annexin/PI); assay type: cell-based, Chinese hamster
Description: as §1, §2

[4] = test system: NSO myeloma cells; settings: overexpression in NSO myeloma cells; Murray et al. 1996; cited from earlier work
[5] = test system: different cell lines; settings: under cell-culture conditions; other investigators; cited from earlier work
[6] = test system: CHO (dhfr+) cells; assay: effect of p35 expression on viability in 2 liter bioreactors; assay type: cell-based, Chinese hamster; settings: p35 expressed in CHO cells vs cpc vector control, 2 liter bioreactor

## COC(=O)C[C@H](NC(=O)[C@H](C)NC(=O)[C@@H](NC(=O)OCc1ccccc1)C(C)C)C(=O)CF [z-VAD-fmk] (Cbz-Val-Ala-Asp(OMe)-CH2F)
[1]
  life of the culture: unable to substantially extend the life
[2]
  caspase-3 activity: inhibition of caspase-3 activity
[3]; added at a concentration of about 100 micromolar
  apoptosis in cell cultures: can inhibit apoptosis
[3]; z-VAD-fmk added to the culture at 100 uM, from 48 hours, every 24 hours
  cell viability: prolongation of cell viability

## bcl-2: anti-apoptotic gene overexpressed in cultured cells
[4]
  decline phase characteristics of the cultured cells: failed to affect the decline phase characteristics
[5]
  prevention of cell death: can be effective in preventing different cell lines from death

B1: baculovirus p35: apoptosis inhibitor, baculovirus p35, expressed in CHO cells from p35/CPC construct (protein, UniProt P08160 1-299, looked up)
Early 35 kDa protein: MCVIFPVEIDVSQTIIRDCQVDKQTRELVYINKIMNTQLTKPVLMMFNISGPIRSVTRKNNNLRDRIKSKVDEQFDQLERDYSDQMDGFHDSIKYFKDEHYSVSCQNGSVLKSKFAKILKSHDYTDKKSIEAYEKYCLPKLVDERNDYYVAVCVLKPGFENGSNQVLSFEYNPIGNKVIVPFAHEINDTGLYEYDVVAYVDSVQFDGEQFEEFVQSLILPSSFKNSEKVLYYNEASKNKSMIYKALEFTTESSWGKSEKYNWKIFCNGFIYDKKSKVLYVKLHNVTSALNKNVILNTIK
[6]
  viability in the bioreactor: prolongation of viability
